Marks after values point to notes of the source that are not given here.
Legend:
purified porcine DPP-4 = purified porcine DPP-4 (Sus scrofa, UniProt P22411); test: DPP-4 degradation / in vitro DPP-4 half-life; conditions: 20 μg peptide, 5 mU purified DPP-4, up to 12 h, HPLC
Protocol: Peptide (20 μg) DPP-4 degradation profiles (5 μl purified DPP-4, 5 mU; Sigma-Aldrich, UK) were assessed as described previously.
For calculation of experimental molecular masses, peptide samples (1 µg) were mixed with α-cyano-4-hydroxycinnamic acid (1 µg) and applied to a Voyager-DE BioSpectrometry Workstation and mass-to-charge (m/z) ratio verses peak intensity recorded by MALDI-TOF mass spectrometry. DPP-4 half-life was assessed by incubating peptides (37°C in 50 mmol/L TEA-HCl; pH 7.8) with 5 mU purified porcine DPP-4 for 0, 1, 2, 4, 8 and 12 h. Degradation profiles were obtained using rp-HPLC analysis and HPLC peak area data used to calculate percentage intact peptide remaining at each time point.

high-fat-fed mice [1] = test: Metabolic response to native GIP after 21 day treatment; format: in vivo, mouse; conditions: 25 nmol/kg twice daily for 21 days
Protocol: (§1) Twice-daily (09:30 and 17:30 hours) i.p. injections of saline vehicle, (DAla^2)GIP or (DAla^2)GIP/xenin-8-Gln hybrid (both at 25 nmol/kg) were administered for 21 days in high-fat-fed mice. Energy intake and body weight were monitored daily and non-fasting blood glucose and plasma insulin concentrations were assessed at 3 day intervals. On day 21, a non-fasted 24 h glucose profile was conducted. At the end of the treatment period, i.p. glucose tolerance (18 mmol/kg), biological response to GIP (18 mmol/kg glucose in combination with native GIP [25 nmol/kg], i.p.) and insulin sensitivity (15 U/kg; i.p.) tests were performed. Terminal analysis included measurement of total body fat and lean mass by dual-energy X-ray absorptiometry (DEXA) scanning (Piximus Densitometer; Inside Outside Sales, Fitchburg, WI, USA) and extraction of pancreatic tissue for analysis as detailed below.

lean control mice = test: Acute cumulative food intake in lean mice; format: in vivo, mouse; conditions: 250 nmol/kg i.p., 18 h fasted lean mice, 180 min post injection, vs saline
Protocol: (§2) Animals Acute animal studies were conducted in male NIH Swiss mice (12-14 weeks old, Harlan Ltd, UK) maintained on a standard rodent maintenance diet (10% fat, 30% protein and 60% carbohydrate, Trouw Nutrition, UK). Prior to commencement of longer term studies, all animals, except lean controls that continued on rodent maintenance diet, were maintained on a high-fat diet (45% fat, 35% carbohydrate and 20% protein, Special Diet Services, UK) for 12 weeks. This diet […]
(§3) individually in an air-conditioned room at 22 ± 2 °C with a 12 h light:12 h dark cycle and had free access to food and water. Animal experiments were carried out in accordance with the UK Animals (Scientific Procedures) Act 1986.
(§4) Acute in vivo effects in lean mice For food intake studies, fasted (18 h) mice were given intraperitoneal (i.p) injections of peptides at a dose of 25, 100 or 250 nmol/kg bw. Mice were then allowed free access to normal chow for 180 mins and cumulative food intake measured. For glucose homeostasis and […]

high-fat-fed mice [2] = test: Subchronic 21 day twice-daily treatment: energy intake, body weight, body composition, non-fasted glucose and insulin; format: in vivo, mouse; conditions: 25 nmol/kg i.p. twice daily
Protocol: as §1
Blood samples were collected from the cut tip on the tail vein of conscious mice into chilled fluoride/heparin glucose micro-centrifuge tubes (Sarstedt, Numbrecht, Germany). Blood glucose was measured directly using a hand-held Ascencia Contour blood glucose meter (Bayer Healthcare, Newbury, UK). Plasma and pancreatic insulin was assayed by a modified dextran-coated charcoal radioimmunoassay.
(§5) In vitro insulin release studies Cells were seeded at a density of 150,000 cells/well in 24-well plates (Nunc, Roskilde, Denmark) and allowed to attach overnight at 37 °C. Culture medium was removed and cells were pre-incubated in Krebs–Ringer bicarbonate buffer (containing 0.5% (w/v) BSA, pH 7.4) supplemented with 1.1 mmol/l glucose for 40 min at 37 °C. Following the pre-incubation, experiments (n=8) were performed in presence of glucose (5.6 or 16.7 mmol/l) with a […]
(§6) incubations, aliquots of assay buffer were collected from each well and stored at -20 °C prior to […]
as §2, §3, §4

high-fat-fed mice [3] = test: Glucose tolerance test after 21 day treatment; format: in vivo, mouse; conditions: AUC 0–105 min after i.p. glucose 18 mmol/kg; 25 nmol/kg twice daily for 21 days; 18 h fasted high-fat-fed mice; mean ± SEM, 6–8 mice
Protocol: as §1

BRIN-BD11 cells [4] = test: Intracellular Ca2+ in BRIN-BD11 cells (FLIPR Calcium 5); format: cell-based, rat; conditions: peptide 10^−6 mol/l, 5.6 mmol/l glucose, 5 min, AUC 0–300 s
Protocol: (§7) BRIN-BD11 cells were used to assess the insulin-releasing activity of test peptides, as described previously. This hybrid cell line (ECACC 10033003) was originally generated in-house by electrofusion of a primary culture of New England Deaconess Hospital (NEDH) rat pancreatic islets with RINm5F (a cell line derived from an NEDH rat insulinoma), and has been mycoplasma eradicated. For details of experimental conditions please see ESM Methods. Insulin was measured by radioimmunoassay. We assessed the impact of GIP and neurotensin receptors on (DAla^2)GIP/xenin-8-Gln-induced insulin secretion in BRIN-BD11 cells. Cells were incubated in 5.6 mmol/l glucose with (DAla^2)GIP/xenin-8-Gln (10^−6 mol/l) alone or in combination with the GIP receptor antagonist GIP(6-30)Cex-K^40[Pal] [32] (where Pal is palmitate) or the neurotensin receptor antagonist SR142948A (Sigma, Poole, UK), and insulin secretion determined as described above. In addition, to determine mechanisms, intracellular Ca^2+ was also measured in BRIN-BD11 cells following treatment with test peptides (10^−6 mol/l), using a Flexstation scanning fluorometer (FLIPR Calcium 5 assay kit; Molecular Devices, Sunnyvale, CA, USA), as described previously.

BRIN-BD11 cells [5] = test: In vitro insulin secretion from BRIN-BD11 cells; format: cell-based, rat; conditions: 20 min
Protocol: as §7, §5, §6
Acute in vivo effects in lean mice For food intake studies, fasted (18 h) mice were given intraperitoneal (i.p) injections of peptides at a dose of 25, 100 or 250 nmol/kg bw. Mice were then allowed free access to normal chow for 180 mins and cumulative food intake measured. […]

[6] = AUC 0–105 min after i.p. glucose 18 mmol/kg with GIP 25 nmol/kg, 18 h fasted high-fat-fed mice, mean ± SEM, 6–8 mice
[7] = 21 days, high-fat-fed mice, vs high-fat-fed controls

Sequence of purified porcine DPP-4 (P22411 whole entry): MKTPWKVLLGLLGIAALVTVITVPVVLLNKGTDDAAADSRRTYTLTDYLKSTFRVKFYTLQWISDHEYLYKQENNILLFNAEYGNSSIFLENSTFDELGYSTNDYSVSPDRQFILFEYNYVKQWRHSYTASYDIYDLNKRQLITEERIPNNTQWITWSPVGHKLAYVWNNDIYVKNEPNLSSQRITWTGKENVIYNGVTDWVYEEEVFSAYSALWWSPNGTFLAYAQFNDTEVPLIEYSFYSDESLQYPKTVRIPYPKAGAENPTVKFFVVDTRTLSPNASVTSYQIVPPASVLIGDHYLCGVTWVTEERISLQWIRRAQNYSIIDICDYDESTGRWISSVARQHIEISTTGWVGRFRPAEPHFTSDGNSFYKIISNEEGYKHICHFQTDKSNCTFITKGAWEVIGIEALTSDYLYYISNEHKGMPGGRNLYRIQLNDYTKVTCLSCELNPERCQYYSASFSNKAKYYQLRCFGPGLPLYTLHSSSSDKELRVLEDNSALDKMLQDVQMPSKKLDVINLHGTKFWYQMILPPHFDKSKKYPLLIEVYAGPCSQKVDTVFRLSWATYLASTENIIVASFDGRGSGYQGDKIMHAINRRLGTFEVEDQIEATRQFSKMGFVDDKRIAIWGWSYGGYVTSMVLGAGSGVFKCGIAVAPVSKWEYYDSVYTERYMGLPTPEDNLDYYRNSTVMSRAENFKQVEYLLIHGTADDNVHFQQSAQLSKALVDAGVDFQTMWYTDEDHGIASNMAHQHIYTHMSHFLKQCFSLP

## CC[C@H](C)[C@H](NC(=O)[C@H](CO)NC(=O)[C@H](Cc1ccc(O)cc1)NC(=O)[C@H](CC(=O)O)NC(=O)[C@H](CO)NC(=O)[C@@H](NC(=O)[C@H](Cc1ccccc1)NC(=O)[C@@H](NC(=O)CNC(=O)[C@H](CCC(=O)O)NC(=O)[C@@H](C)NC(=O)[C@@H](N)Cc1ccc(O)cc1)[C@@H](C)O)[C@@H](C)CC)C(=O)N[C@@H](C)C(=O)N[C@@H](CCSC)C(=O)N[C@@H](CC(=O)O)C(=O)N[C@@H](CCCCN)C(=O)N[C@H](C(=O)N[C@@H](Cc1c[nH]cn1)C(=O)N[C@@H](CCC(N)=O)C(=O)N[C@@H](CCC(N)=O)C(=O)N[C@@H](CC(=O)O)C(=O)N[C@@H](Cc1ccccc1)C(=O)N[C@H](C(=O)N[C@@H](CC(N)=O)C(=O)N[C@@H](Cc1c[nH]c2ccccc12)C(=O)N[C@@H](CC(C)C)C(=O)N[C@@H](CC(C)C)C(=O)N[C@@H](C)C(=O)N[C@@H](CCC(N)=O)C(=O)N[C@@H](CCCCN)C(=O)NCC(=O)N[C@@H](CCCCN)C(=O)N[C@@H](CCCCN)C(=O)N[C@@H](CC(N)=O)C(=O)N[C@@H](CC(=O)O)C(=O)N[C@@H](Cc1c[nH]c2ccccc12)C(=O)N[C@@H](CCCCN)C(=O)N[C@@H](Cc1c[nH]cn1)C(=O)N[C@@H](CC(N)=O)C(=O)N[C@H](C(=O)N[C@H](C(=O)N[C@@H](CCC(N)=O)C(=O)O)[C@@H](C)O)[C@@H](C)CC)C(C)C)[C@@H](C)CC [(DAla^2)GIP]
Purified porcine DPP-4
  Stability when incubated in the presence of DPP-4: remained fully intact
high-fat-fed mice [1]; high-fat-fed mice, glucose 18 mmol/kg with GIP 25 nmol/kg
  Decrease of overall blood glucose AUC in response to native GIP compared with saline-treated control: 36%
high-fat-fed mice [1]; [6]
  Metabolic response to GIP: Blood glucose AUC: 1029.5 ± 138.0 mmol·min/L
  Metabolic response to GIP: Plasma insulin AUC: 20,308 ± 3805**^,††† pmol/l × min
Lean control mice
  Cumulative food intake: all peptides except (DAla^2)GIP induced significant (p < 0.05 to p < 0.01) reductions
high-fat-fed mice [2]; [7]
  Body weight: no significant effect
  Cumulative energy intake: no significant effect
high-fat-fed mice [2]; day 21, high-fat-fed mice
  Non-fasting 24 h blood glucose profile: also reduced, but not to the same extent
  Total body fat and lean mass (DEXA): unaltered
high-fat-fed mice [2]; day 21, high-fat-fed mice, vs high-fat-fed controls
  Non-fasted plasma insulin: reduced plasma insulin levels compared with high-fat-fed controls on day 21 but the difference did not reach statistical significance
high-fat-fed mice [2]; high-fat-fed mice, from day 12 onwards
  Non-fasting blood glucose compared with lean controls: not significantly different from lean controls
high-fat-fed mice [3]
  Glucose tolerance test: Blood glucose AUC: 1714.7 ± 138.6 mmol·min/L
  Glucose tolerance test: Plasma insulin AUC: 11,253 ± 1590 pmol/l × min
BRIN-BD11 cells [4]
  Effect on intracellular Ca^2+ concentrations: Neither, (DAla^2)GIP, xenin-8-Gln nor (DAla^2)GIP/xenin-8-Gln had any effect
BRIN-BD11 cells [5]; peptide 10^−6 mol/l, antagonist 10^−6 mol/l, 5.6 mmol/l glucose
  Peptide-mediated insulin secretion in presence of GIP receptor antagonist GIP(6-30)Cex-K^40[Pal]: completely annulled
BRIN-BD11 cells [5]; peptide 10^−8 mol/l, 5.6 or 16.7 mmol/l glucose, vs respective glucose controls
  Insulin release from BRIN-BD11 cells: significant (p < 0.01 to p < 0.001) increase in insulin release

Source: publication PMC6518372, “An enzymatically stable GIP/xenin hybrid peptide restores GIP sensitivity, enhances beta cell function and improves glucose homeostasis in high-fat-fed mice” (Diabetologia, 2016)
